Reference: patent publication US6635436B2, “Methods for the screening of non-recombinant cell lines capable of expressing a single PDE4 isoenzyme and for the screening of PDE4 inhibitors” (Warner-Lambert Company, priority 1999, dated 2003)

Columns and labels:
PDE4B = assay: Semi-quantitative RT-PCR of PDE4B expression in treated human cell lines; format: cell-based; details: control normalized to 1
Procedure: (§1) RNA was purified using Tripure™ Isolation Reagent, a single-step liquid phase separation issued from the total RNA isolation method developed by Chomczynski and Sacchi (1987). Washed and pelleted cells were resuspended at a concentration of 1×10^6 cells/ml Tripure and the total RNA extracted was quantified spectrophotometrically. RT-PCR was carried out using the commercial PCR ELISA Dig Labelling Kit. First strand cDNA was generated from 1 μg of total RNA per sample using random hexamers to prime the reverse transcription (First Strand cDNA Synthesis Kit for RT-PCR) and was directly amplified by PCR following the addition of specific primer pairs. Oligonucleotide primers were: PDE4A, 5′-[…]-3′ (SEQ ID N^o1) and 5′-[…]-3′ (SEQ ID N^o2), defining a 439-bp product; PDE4B, 5′-[…]-3′ and 5′-[…]-3′, defining a 327-bp product; PDE4C, 5′-[…]-3′ and 5′-[…]-3′ defining a 331-bp product; PDE4D, 5′-[…]-3′ and 5′-[…]-3′, defining a 339-bp product. The 5′-biotin-labelled capture probes used for the detection of PCR fragments were: 5′-[…]-3′ for PDE4A, 5′-[…]-3′ for PDE4B, 5′-[…]-3′ for PDE4C, 5′-[…]-3′ for PDE4D. Briefly, this PCR ELISA allows the specific detection of PCR products in a semi-quantitative microtiter plate format. The PCR products are labelled with digoxigenin during the amplification process (dig labelling). The labelled PCR products are analyzed by solution hybridization to a specific capture probe that is complementary to the inner part of the amplification product (dig detection). This capture probe is labelled with biotin to allow immobilization of the hybrid to a streptavidin coated microtiterplate surface. Unspecific amplification products will not hybridized to this capture probe and thus will be removed during the following washing steps; The bound hybrid is detected by an anti-digoxigenin peroxidase conjugate and by use of the calorimetric substrate ABTS. In comparison with suitable standards the color signal can be used for semi-quantitative evaluation of an amplification reaction. In our experiments the PDE4 subtypes PCR fragments amplified in the control cells (cells non treated with any of the compound tested), were our standards and the optical densities found for these PCR-fragments were normalized to 1.
(§2) All the cell lines used in this study were obtained from the European Collection of Cell Culture (ECACC). U-937, HT-29, HL-60, Jurkat, MOLT-4, HK-293, CACO2 were grown in RPMI 1640 medium supplemented with 10% (v/v) heat-inactivated calf serum at 37° C. in an humidified atmosphere of 95% air-5% CO2. […] Cells in suspension were seeded at 10^6 cells/ml and adherent ones were used when confluent. After the required incubation times, 10^6 cells were used for mRNA extraction and 2.5×10^8 for proteins extraction.
(§3) The control cells received 1% DMSO for 2 hours or 3 days. After treated, the cells were washed and prepared for mRNA extraction as described in the Materials and Methods section. PCR fragments were quantified by semi-quantitative PCR: The expression of the subtypes in control cells was normalized to 1 to allow expression of the data found in the treated cells as an x-fold increase or decrease expression of each subtype in comparison to the control value.
(§4) The expression of the subtypes in control cells was normalized to 1 to be able to express the data found in the treated cells as an x-fold increase or decrease expression of each subtype in comparison to the control value. The results obtained are summarised in table 2 and here again, none of the treatment used was able to induce the expression of a C subtype.

PDE 4D3 = assay: Semi-quantitative RT-PCR of PDE4D3 expression in treated human cell lines; format: cell-based; details: control normalized to 1
Procedure: as §1, §2, §3, §4

PDE4 = assay: Chromatographic resolution and assay of PDE activities in control and PMA-treated cells; format: cell-based, human; details: HL-60 cells treated with 1 μM PMA for 72 hours; control cells 0.14
Procedure: as §2
The adherent cells were disrupted by trypsinisation and along with the non-adherent cells were washed carefully at least twice with sterile PBS and counted. […]
Phosphodiesterase activities were assayed using a modification of the method described by Smith et al. (1993) utilizing the observation that 5′-nucleotides bind very strongly to alumina while the cyclic nucleotides are readily eluted at neutral or slightly alkaline pH. […] The separated [^3H]cAMP was back-corrected for recovery using the separated and non-separated ^14C values and expressed as a fraction of the total [^3H]cAMP to give the amount of substrate hydrolyzed.
These studies were conducted originally to set up PDE4 subtype cellular assays, for this reason the cell lines that were expressing either a single or majority of a single subtype after the different treatments, were analysed for their phosphodiesterase activities. […]

PDE4A = assay: Semi-quantitative RT-PCR of PDE4A expression in treated human cell lines; format: cell-based; details: control normalized to 1
Procedure: as §1, §2, §3, §4

PDE4D = assay: Semi-quantitative RT-PCR of PDE4D expression in treated human cell lines; format: cell-based; details: control normalized to 1
Procedure: as §1, §2, §3, §4

| SMILES | PDE4 subtype B x-fold change in expression vs control (number in brackets) (PDE4B; HK-293 cells) [fold] | PDE4 subtype B x-fold change in expression vs control (number in brackets) (PDE4B; HL-60 cells) [fold] | PDE4 subtype B x-fold change in expression vs control (number in brackets) (PDE4B; Jurkat cells) [fold] | PDE4 subtype B x-fold change in expression vs control (number in brackets) (PDE4B; Molt-4 cells) [fold] | PDE4 D3 x-fold change in expression vs control (number in brackets) (PDE 4D3; CACO-2 cells) [fold] | PDE4 D3 x-fold change in expression vs control (number in brackets) (PDE 4D3; HK-293 cells) [fold] | PDE4 D3 x-fold change in expression vs control (number in brackets) (PDE 4D3; HT-29 cells) [fold] | PDE4 subtype A x-fold change in expression vs control (number in brackets) (PDE4A; CACO-2 cells) [fold] | PDE4 subtype A x-fold change in expression vs control (number in brackets) (PDE4A; HK-293 cells) [fold] | PDE4 subtype A x-fold change in expression vs control (number in brackets) (PDE4A; HT-29 cells) [fold] | PDE4 subtype A x-fold change in expression vs control (number in brackets) (PDE4A; Jurkat cells) [fold] | PDE4 subtype A x-fold change in expression vs control (number in brackets) (PDE4A; Molt-4 cells) [fold] | PDE4 subtype D x-fold change in expression vs control (number in brackets) (PDE4D; HL-60 cells) [fold] | PDE4 subtype D x-fold change in expression vs control (number in brackets) (PDE4D; HT-29 cells) [fold] | PDE4 subtype D x-fold change in expression vs control (number in brackets) (PDE4D; Jurkat cells) [fold] | PDE4 subtype D x-fold change in expression vs control (number in brackets) (PDE4D; Molt-4 cells) [fold] | other results |
| --- | --- | --- | --- | --- | --- | --- | --- | --- | --- | --- | --- | --- | --- | --- | --- | --- | --- |
| CCCCCCCCCCCCCC(=O)O[C@@H]1[C@@H](C)[C@@]2(O)[C@@H](C=C(CO)C[C@]3(O)C(=O)C(C)=C[C@@H]23)[C@@H]2C(C)(C)[C@]12OC(C)=O [PMA, phorbol myristate acetate] | 1 | −12.2 | −2 | 1 | −1.1 | 1 | 1 | 1 | 1 | 1.5 | 1 | −1.5 | −14.5 | 1.8 | −1.9 | 1.1 | maximum PDE4 activity (PDE4): 0.9 pmol AMP formed/min/μl |
| C[C@@H]1C[C@H]2[C@@H]3CCC4=CC(=O)C=C[C@]4(C)[C@@]3(F)[C@@H](O)C[C@]2(C)[C@@]1(O)C(=O)CO [Dexamethasone, dexamethasone] | −1.5 | −1.2 | 1 | 1 | 1 | 1 | 1 | 1 | 1 | 1 | 1 | 2 | 1 | 1 | 1 | 1.1 | PDE4 D3 x-fold change in expression vs control (number in brackets) (PDE 4D3; HL-60 cells): 1 fold; PDE4 subtype A x-fold change in expression vs control (number in brackets) (PDE4A; HL-60 cells): 1 fold; PDE4 subtype A x-fold change in expression vs control (number in brackets) (PDE4A; Molt-4 cells, listed as dexamethasone): +2 fold; PDE4 subtype D x-fold change in expression vs control (number in brackets) (PDE4D; CACO-2 cells): 1 fold; PDE4 subtype D x-fold change in expression vs control (number in brackets) (PDE4D; HK-293 cells): 1 fold |
